Experiment [1] has as its target T1, Renal Dipeptidase (RDP) (Homo sapiens, UniProt P16444).
T1 construct: from tissue; host or cells: small intestine lysate
T1 sequence (P16444 17-385): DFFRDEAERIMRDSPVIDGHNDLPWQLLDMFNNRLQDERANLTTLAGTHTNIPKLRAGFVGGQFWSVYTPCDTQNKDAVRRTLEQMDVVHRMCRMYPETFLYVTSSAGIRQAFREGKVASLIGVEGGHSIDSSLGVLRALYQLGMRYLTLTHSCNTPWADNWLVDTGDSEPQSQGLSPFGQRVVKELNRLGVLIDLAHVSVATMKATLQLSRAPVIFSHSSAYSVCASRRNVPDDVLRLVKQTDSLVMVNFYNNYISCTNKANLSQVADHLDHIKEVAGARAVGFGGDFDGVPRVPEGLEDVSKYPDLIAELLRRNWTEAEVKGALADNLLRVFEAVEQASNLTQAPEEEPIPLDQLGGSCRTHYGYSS
Kind of experiment: RDP inhibition assay (IC50), small intestine lysate, fluorogenic substrate ε-DNP-L-Lys-D-Amp. Type of experiment: biochemical. On the procedure:
Inhibitors were diluted from MeOH stock solution in water. […] After mixing incubated at 37° C. Florescence was measured at 30 sec intervals. The IC50 values were determined using small Intestine lysate.

Experiment [2] has as its target T2, Renal Dipeptidase (RDP) (Homo sapiens, UniProt P16444). The conditions noted are these: read-out: RDP inhibition Ki; colon cancer lysate; Table 1. On the procedure:
The assay buffer was prepared by mixing 20 mM Tris, pH=8, 10 μM ZnCl2. 1 mM substrate (ε-DNP-L-Lys-D-Amp) stock solution in DMSO was prepared. Inhibitors were diluted from MeOH stock solution in water. […] of lysate was taken in 150 μl of assay buffer and 20 μl of inhibitor was added. The mixture was incubated at room temperature for 30 min. It was then transferred to plate containing 2 μl/well, 1 mM substrate in DMSO. After mixing incubated at 37° C. Florescence was measured at 30 sec intervals. The IC50 values were determined using small Intestine lysate. Ki values were determined for selected compounds using colon cancer lysate.
(§1) The RDP inhibition activity of these compounds was determined using crude lysates prepared from human colon cancers. The results are expressed as the concentration of inhibitor needed to inhibit enzyme activity by 50% (IC50). Human colon cancer extracts were prepared by homogenizing one cm^3 of frozen colon tissue in 10 ml of 20 mM Tris, pH 8.0, 10 μM ZnCl2, 0.1% Triton X 100. The extract was clarified by centrifugation at 13,000×g for 5 minutes at 4° C. and, for each measurement, 20 μl was diluted into 158 μl of 20 mM Tris, pH 8.0, 10 μM ZnCl2. 20 μl of the synthesised compounds were added to each reaction to obtain final concentrations ranging from 0 to 10 μM. The mixtures were incubated at room temperature for 30 minutes to allow enzyme-inhibitor complex formation, and the reactions were initiated by the addition of 2 μl of 1 mM substrate (εDNP-L-Lys-D-Amp).^14 While incubating at 37° C., fluorescence (λex=320 nm, λem=405 nm) measurements were determined at 30 sec intervals and the relative reaction rate was taken as the rate of increase of fluorescence over time.

The target in experiment [3] is T2, Renal Dipeptidase (RDP). The settings on record: for IC50: read-out: RDP inhibition activity IC50, colon cancer lysate, Table 3; for RDP inhibitor potency in words / activity of Z isomers relative to their E counterparts (9, 11 and 13): human colon cancer lysate, numbering of Table 3. On the procedure:
as §1

Data on 14 molecules can be found in patent US7785564B2, “Design and synthesis of renal dipeptidase inhibitors” (The Johns Hopkins University, priority 2002, dated 2010).

Like-named read-outs stand apart in the source and are kept apart here.

Usually IC50 stands for the concentration that gives 50% inhibition. For orientation: Ki means a measure of affinity in units of concentration, obtained from inhibition or displacement. On to `NC(CC1CCCCC1)P(=O)(O)C/C(=C/c1ccc(Br)cc1)C(=O)O` (centres unmarked) [compound 11], for which the IC50 amounted to 30 nM in experiment [1] (Table 1) and 25 nM in experiment [3]. In experiment [2], the Ki was 2.4 nM.

Molecule `NC(CC1CCCCC1)P(=O)(O)C/C(=C\c1ccccc1)C(=O)O` (centres unmarked) [compound 6] displayed an IC50 in experiment [1] (Table 1) of 28 nM. For the same molecule, the Ki in experiment [2] was determined as 1.12 nM.

For `CCN(CC)c1ccc(/C=C(\CP(=O)(O)C(N)CC2CCCCC2)C(=O)O)cc1` (centres unmarked) [compound 26], the IC50 in experiment [1] (Table 2) stood at 70 nM.

As to `NC(CC1CCCCC1)P(=O)(O)CC(=Cc1ccc(I)cc1)C(=O)O` (mixture of isomers) [compound 14], in experiment [1] (Table 1), the IC50 was found to be 45 nM. In experiment [2], the inhibition constant (Ki) is 3 nM.

In the case of `NC(CC1CCCCC1)P(=O)(O)C/C(=C/c1ccc(F)cc1)C(=O)O` (centres unmarked) [compound 9], the IC50 stood at 15 nM in experiment [1] (Table 1) and 300 nM in experiment [3]. Also, the Ki in experiment [2] came out at 0.72 nM.

`NC(CC1CCCCC1)P(=O)(O)C/C(=C\c1ccc(C(F)(F)F)cc1)C(=O)O` (centres unmarked) [compound 18] registered an IC50 in experiment [1] (Table 2) of 10 nM.

Take `NC(CC1CCCCC1)P(=O)(O)C/C(=C\c1ccc(F)cc1)C(=O)O` (centres unmarked) [compound 8]: the IC50 in experiment [1] (Table 1) came out at 5 nM. Also, the Ki in experiment [2] was 0.6 nM. Further, in experiment [3], the “RDP inhibitor potency in words” value is “potent RDP inhibitors”; the “activity of Z isomers relative to their E counterparts (9, 11 and 13)” value is listed as “significantly more active”; the IC50 was 5.5 nM.

As for `NC(CC1CCCCC1)P(=O)(O)C/C(=C/c1ccc(I)cc1)C(=O)O` (centres unmarked) [compound 13], the figures for the IC50 in experiment [1] (Table 1) and in experiment [3] were 25 nM and 60 nM, respectively. For the same molecule, in experiment [2], the Ki came to 2 nM.

`NC(CC1CCCCC1)P(=O)(O)C/C(=C\c1ccc(I)cc1)C(=O)O` (centres unmarked) [compound 12] gave an IC50 in experiment [1] (Table 1) of 8 nM. Further, the Ki in experiment [2] was 0.6 nM. Further, in experiment [3], the “RDP inhibitor potency in words” value was “potent RDP inhibitors”; the “activity of Z isomers relative to their E counterparts (9, 11 and 13)” value is given as “significantly more active”; the IC50 came to 3.5 nM.

Regarding `NC(CC1CCCCC1)P(=O)(O)C/C(=C/c1ccc(C(F)(F)F)cc1)C(=O)O` (centres unmarked) [compound 19], in experiment [1] (Table 2), the IC50 worked out at 200 nM.

`CCN(CC)c1ccc(/C=C(/CP(=O)(O)C(N)CC2CCCCC2)C(=O)O)cc1` (centres unmarked) [compound 27] yielded an IC50 in experiment [1] (Table 2) of 150 nM.

In experiment [1] (Table 1), `NC(CC1CCCCC1)P(=O)(O)CC(=Cc1ccc(I)cc1)C(=O)O` (mixture of isomers) [compound 15] returned an IC50 of 250 nM. Moreover, the Ki in experiment [2] was 10 nM. Further, in experiment [3], the “RDP inhibitor potency in words” value is recorded as “far less active” and the IC50 stood at 45 nM.

As to `NC(CC1CCCCC1)P(=O)(O)C/C(=C/c1ccccc1)C(=O)O` (centres unmarked) [compound 7], half-maximal inhibition in experiment [1] (Table 1) (IC50) required 40 nM. Moreover, in experiment [2], the Ki was 1.6 nM.

`NC(CC1CCCCC1)P(=O)(O)C/C(=C\c1ccc(Br)cc1)C(=O)O` (centres unmarked) [compound 10] displayed an IC50 in experiment [1] (Table 1) of 6 nM. The Ki in experiment [2] was determined as 0.72 nM. For the same molecule, in experiment [3], the “RDP inhibitor potency in words” value is reported as “potent RDP inhibitors”; the “activity of Z isomers relative to their E counterparts (9, 11 and 13)” value is given as “significantly more active”; the IC50 was found to be 8 nM.
